Reference: patent US9079913B2, “Spiro-oxindole MDM2 antagonists” (The Regents of the University of Michigan, priority 2009, dated 2015)
Like-named read-outs stand apart in the source and are kept apart here.

Key:
[1] = molecular target: recombinant human His-tagged MDM2 protein (residues 1-118) (Homo sapiens (Human), UniProt Q00987); experiment: Fluorescence-polarization MDM2 binding assay;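 further: fluorescence polarization read after three hours of incubation in potassium phosphate buffer containing bovine gamma globulin and Triton X-100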
Description: The assay was performed in the buffer: 100 mM potassium phosphate, pH 7.5; 100 μg/mL bovine gamma globulin; 0.02% sodium azide, 0.01% Triton X-100) and the polarization values were measured after 3 h of incubation using an ULTRA READER (Tecan U.S. Inc., Research Triangle Park, N.C.). […] The Kd value was calculated using the equation: Kd value=IC50−L0/2.
The polarization values were measured after 3 h of incubation. […] Curve fitting was performed using [sequence] PRISM software (GraphPad Software, Inc., San Diego, Calif.). […] Compounds shown in Tables 19A-D as the free base were tested either as the free base or as the CF3CO2H (TFA) or HCl salt.

[2] = system: Isogenic HCT-116 colon cancer cell lines; experiment: cells; format: cell-based; conditions: Homo sapiens;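 further: cells grown in 96-well plates in McCoy's 5A medium with 10% FBS, exposed to compound for 4 days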
Description: Cells were seeded in 96-well flat bottom cell culture plates at a density of 2−3×10^3 cells/well with compounds and incubated for 4 days.

[3] = system: cancer cell lines with wild-type p53 / mutated or deleted p53 (ATCC); experiment: Cell growth assay (WST-8), other cancer cell lines; format: cell-based; conditions: Homo sapiens
[4] = Table 19A, FP binding assay, read-out: MDM2 IC50
[5] = HCT-116, read-out: HCT-116 (p53-/-) IC50, Table 19A, HCT-116 p53-/-, cell growth
[6] = HCT-116, read-out: HCT-116 (p53 wild-type) IC50, Table 19A, HCT-116 p53 wild-type, cell growth
[7] = LNCaP, Table 19A, LNCAP cells, p53 wild-type, cell growth, read-out: LNCAP (p53 wild-type) IC50
[8] = PC-3, Table 19A, PC-3 cells, deleted p53, cell growth, read-out: PC-3 (deleted p53) IC50
[9] = SJSA-1, Table 19A, SJSA-1 cells, p53 wild-type, cell growth, read-out: SJSA-1 (p53 wild-type) IC50
[10] = Table 19D, read-out: MDM2 Binding Affinities IC50
[11] = HCT-116, read-out: HCT116p53KO IC50, Table 19D, HCT116 p53KO
[12] = HCT-116, read-out: HCT116p53WT IC50, Table 19D, HCT116 p53WT
[13] = LNCaP, Table 19D, LNCaP cells, read-out: LNCaP IC50
[14] = PC-3, Table 19D, PC3 cells, read-out: PC3 IC50
[15] = Table 19D, SJSA-1 cells, unit inferred, read-out: SJSA-1
[16] = Table 19B, read-out: Binding affinities to MDM2 protein as determined by FP based assay IC50
[17] = HCT-116, read-out: Inhibition of cell growth IC50, HCT116 p53 KO, Table 19B, HCT116 p53 KO
[18] = HCT-116, read-out: Inhibition of cell growth IC50, HCT116 p53 WT, Table 19B, HCT116 p53 WT
[19] = LNCaP, Table 19B, LNCaP cells, read-out: Inhibition of cell growth IC50, LNCaP
[20] = PC-3, Table 19B, PC3 cells, read-out: Inhibition of cell growth IC50, PC3

Sequence of recombinant human His-tagged MDM2 protein (residues 1-118) (Q00987 1-118): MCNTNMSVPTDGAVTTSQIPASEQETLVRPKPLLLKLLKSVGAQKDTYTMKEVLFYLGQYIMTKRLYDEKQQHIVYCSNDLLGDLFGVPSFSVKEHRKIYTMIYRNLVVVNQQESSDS

SMILES | IC50 [1, 4] [µM] | IC50 [2, 5] [µM] | IC50 [2, 6] [µM] | IC50 [3, 7] [µM] | IC50 [3, 8] [µM] | IC50 [3, 9] [µM] | further results
CC(C)[C@H](N)C(=O)OC1CCC(NC(=O)[C@@H]2N[C@H](CC(C)(C)C)[C@]3(C(=O)Nc4cc(Cl)ccc43)[C@H]2c2cccc(Cl)c2F)CC1 (stereo partly shown) [MI-902] | < 3 | 5.9 | < 3 | < 3 | 4 | < 3 | 
CC(C)(C)C[C@H]1N[C@@H](C(=O)N[C@H]2CC[C@@H](N)C2)[C@H](c2cccc(Cl)c2F)[C@@]12C(=O)Nc1cc(Cl)ccc12 [MI-519-55] |  |  |  |  |  |  | IC50 [1, 10]: < 1 µM; IC50 [2, 11]: > 5 µM; IC50 [2, 12]: < 2 µM; IC50 [3, 13]: < 2 µM; IC50 [3, 14]: > 3 µM; IC50 [3, 15]: < 3 µM
CC(C)C[C@H](N)C(=O)OC1CCC(NC(=O)[C@@H]2N[C@H](CC(C)(C)C)[C@]3(C(=O)Nc4cc(Cl)ccc43)[C@H]2c2cccc(Cl)c2F)CC1 (stereo partly shown) [MI-903] | < 3 | 12.1 | < 3 | < 3 | 3.5 | < 3 | 
CC(C)NC(=O)N1CC(NC(=O)[C@@H]2N[C@H](CC(C)(C)C)[C@]3(C(=O)Nc4cc(Cl)ccc43)[C@H]2c2cccc(Cl)c2F)C1 [MI-911] | < 3 | > 10 | < 5 | < 5 | > 10 | < 5 | 
CCC(C)(C)C[C@H]1N[C@@H](C(=O)NCC[C@H](O)CO)[C@H](c2cccc(Cl)c2)[C@@]12C(=O)Nc1cc(Cl)c(F)cc12 [MI-720] |  |  |  |  |  |  | IC50 [1, 16]: < 1 µM; IC50 [2, 17]: 19.5 ± 5.6 µM; IC50 [2, 18]: 0.69 µM; IC50 [3, 19]: 0.76 ± 0.1 µM; IC50 [3, 20]: 15.2 ± 3.2 µM
CN1CC[C@@H](NC(=O)[C@@H]2N[C@H](CC(C)(C)C)[C@]3(C(=O)Nc4cc(Cl)ccc43)[C@H]2c2cccc(Cl)c2F)[C@@H](F)C1 [MI-519-58] |  |  |  |  |  |  | IC50 [1, 10]: < 1 µM; IC50 [2, 11]: > 10 µM; IC50 [2, 12]: < 3 µM; IC50 [3, 13]: < 3 µM; IC50 [3, 14]: > 10 µM; IC50 [3, 15]: < 3 µM
CC(C)(C)C[C@H]1N[C@@H](C(=O)NC2CCC(NS(=O)(=O)C(F)(F)F)CC2)[C@H](c2cccc(Cl)c2)[C@@]12C(=O)Nc1cc(Cl)c(F)cc12 (stereo partly shown) [MI-777] | < 5 | 7.8 | 8.9 | 6.6 |  | 9.2 | 
O=C(NCC[C@H](O)CO)[C@@H]1N[C@H](CC2CCCCC2)[C@]2(C(=O)Nc3cc(Cl)c(F)cc32)[C@H]1c1cccc(Cl)c1 [MI-716A] |  |  |  |  |  |  | IC50 [1, 16]: < 3 µM; IC50 [2, 17]: > 10 µM; IC50 [2, 18]: 1 ± 0.5 µM; IC50 [3, 19]: 1.1 ± 0.5 µM; IC50 [3, 20]: 11.5 ± 0.5 µM
CC(C)CC(C)(C)C[C@H]1N[C@@H](C(=O)NCC[C@H](O)CO)[C@H](c2cccc(Cl)c2F)[C@@]12C(=O)Nc1cc(Cl)c(F)cc12 [MI-731] |  |  |  |  |  |  | IC50 [1, 16]: < 1 µM; IC50 [2, 17]: 6.4 ± 1.7 µM; IC50 [2, 18]: 0.9 ± 0.5 µM; IC50 [3, 19]: 0.8 ± 0.5 µM; IC50 [3, 20]: 5.6 ± 1.9 µM
CC(C)(C)C[C@H]1N[C@@H](CO)[C@H](c2cccc(Cl)c2)[C@@]12C(=O)Nc1cc(Cl)c(F)cc12 [MI-519-20] |  |  |  |  |  |  | IC50 [1, 10]: < 5 µM; IC50 [2, 11]: 13.4 ± 0.8 µM; IC50 [2, 12]: 1.9 ± 0.1 µM; IC50 [3, 13]: 2.2 ± 0.2 µM; IC50 [3, 14]: 9 ± 1.1 µM
C[C@@H](N)C(=O)OC1CCC(NC(=O)[C@@H]2N[C@H](CC(C)(C)C)[C@]3(C(=O)Nc4cc(Cl)ccc43)[C@H]2c2cccc(Cl)c2F)CC1 (stereo partly shown) [MI-906] | < 1 | 9.1 | < 3 | < 3 | 3.6 | < 3 | 
CC(C)(C)C[C@H]1N[C@@H](C(=O)N2CCN(C(=O)C3CC3)CC2)[C@H](c2cccc(Cl)c2)[C@@]12C(=O)Nc1cc(Cl)c(F)cc12 [MI-743] |  |  |  |  |  |  | IC50 [1, 16]: > 1 µM; IC50 [2, 17]: 5.7 ± 3.4 µM; IC50 [2, 18]: 2.4 ± 0.2 µM; IC50 [3, 19]: 2.5 ± 0.5 µM; IC50 [3, 20]: 7.7 ± 3.1 µM
CC(C)(C)C[C@H]1N[C@@H](C(=O)NC2CN(CCO)C2)[C@H](c2cccc(Cl)c2F)[C@@]12C(=O)Nc1cc(Cl)ccc12 [MI-912] | < 3 | > 10 | < 5 | < 5 | > 5 | < 5 | 
CC(C)(C)C[C@H]1N[C@@H](C(=O)NC2CCN(CC(C)(C)O)CC2)[C@H](c2cccc(Cl)c2F)[C@@]12C(=O)Nc1cc(Cl)ccc12 [MI-785] | < 0.5 | 8 | 0.5 |  |  | 0.7 | 
